Reference: patent US10287251B2, “Pyrazole derivative or pharmaceutically acceptable salt thereof” (KISSEI PHARMACEUTICAL CO., LTD., priority 2015, dated 2019)

Assays:
[1] = biological target: T1, TRPM8 (Rattus norvegicus, UniProt Q8R455); test: Confirmation test of inhibitory effects on icilin-induced wet-dog shakes; assay type: in vivo; details: female SD rats, icilin 1 mg/kg i.p. 1 hour after dosing, shakes counted for 5 minutes
T1 construct: from tissue; host or cells: whole animal, female SD rats (in vivo)
In short: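 Female SD rats received compounds orally at 0.3 to 10 mg/kg in 5% dimethylacetamide/0.5% methylcellulose. One hour later, icilin (1 mg/kg, i.p., in PEG 400) was given, and wet-dog shakes were counted for 5 min starting 5 min after icilin. Percent inhibition was calculated against vehicle-treated rats.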

[2] = test system: overactive bladder induced by acetic acid; test: Confirmation test of elongation action of micturition interval of overactive bladder induced by acetic acid; assay type: in vivo; details: Rattus norvegicus, iv; urethane-anesthetized female SD rats, 1 mg/kg/mL via femoral vein, intravesical 0.25% acetic acid; interval after/before administration x100
Text: Further, TRPM8 inhibitory activity can be evaluated by the efficacy inhibiting the wet-dog shake action which is induced by the administration of Icilin, TRPM8 agonist. Furthermore, an effect on overactive bladder (OAB) can be evaluated by an elongation of micturition interval against overactive bladder induced by acetic acid in accordance with a similar method described in J. Urol., 2001, 166, 1142. Confirmation Test of Elongation Action of Micturition Interval of Overactive Bladder Induced by Acetic Acid Urethane (sigma) was dissolved into pure water by 25% w/v, and female SD rats were anesthetized with 1.25 g/kg urethane by subcutaneous administration. Cannulae were placed in femoral vein and bladder, and the bladder cannula was connected to both a syringe pump and a pressure transducer. Detrusor overactivity was induced by intravesical infusion of 0.25% acetic acid in saline at a rate of 3.6 mL/h, and intravesical pressure was monitored via pressure transducer concurrently. Test compounds were dissolved into a mixture of dimethylacetamide and saline (20:80), and were administered via, the femoral vein. Elongation of micturition interval (%) by test compound was calculated from the following formula: [an average of the three micturition interval after administration/an average of the three micturition interval before administration]×100.

T1 sequence (Q8R455 whole entry): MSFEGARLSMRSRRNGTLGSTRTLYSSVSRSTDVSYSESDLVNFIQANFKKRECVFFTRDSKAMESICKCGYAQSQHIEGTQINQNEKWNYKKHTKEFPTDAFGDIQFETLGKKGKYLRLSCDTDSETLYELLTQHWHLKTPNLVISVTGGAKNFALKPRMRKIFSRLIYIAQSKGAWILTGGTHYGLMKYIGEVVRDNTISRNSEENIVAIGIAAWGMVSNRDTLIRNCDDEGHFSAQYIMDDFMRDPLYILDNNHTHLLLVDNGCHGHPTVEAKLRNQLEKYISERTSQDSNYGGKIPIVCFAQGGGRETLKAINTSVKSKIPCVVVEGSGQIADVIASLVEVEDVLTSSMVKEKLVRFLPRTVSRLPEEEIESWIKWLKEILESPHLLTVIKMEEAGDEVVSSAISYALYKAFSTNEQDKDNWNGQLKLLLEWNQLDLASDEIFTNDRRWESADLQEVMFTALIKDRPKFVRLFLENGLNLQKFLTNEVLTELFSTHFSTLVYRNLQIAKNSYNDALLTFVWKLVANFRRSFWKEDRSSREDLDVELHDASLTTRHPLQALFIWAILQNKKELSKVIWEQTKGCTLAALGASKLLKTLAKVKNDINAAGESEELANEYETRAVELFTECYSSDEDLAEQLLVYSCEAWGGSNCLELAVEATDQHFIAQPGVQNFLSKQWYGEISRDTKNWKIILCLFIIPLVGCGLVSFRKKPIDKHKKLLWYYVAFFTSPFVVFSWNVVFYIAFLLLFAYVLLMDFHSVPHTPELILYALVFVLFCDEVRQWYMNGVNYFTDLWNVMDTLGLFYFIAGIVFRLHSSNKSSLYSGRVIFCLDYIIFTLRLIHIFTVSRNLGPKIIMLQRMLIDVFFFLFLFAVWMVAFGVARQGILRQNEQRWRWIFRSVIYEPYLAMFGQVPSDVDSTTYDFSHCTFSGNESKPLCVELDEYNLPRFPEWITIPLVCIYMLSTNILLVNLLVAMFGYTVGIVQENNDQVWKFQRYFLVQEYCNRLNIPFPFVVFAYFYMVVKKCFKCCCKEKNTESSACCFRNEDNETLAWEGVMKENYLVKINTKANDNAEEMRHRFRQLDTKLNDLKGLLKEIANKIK

SMILES	% inhibition of Wet-Dog Shake ([1]; oral dose 1 mg/kg) [%]	response vs control in vivo at 1 mg/kg [2] [%]	% inhibition of Wet-Dog Shake ([1]; oral dose 3 mg/kg) [%]	% inhibition of Wet-Dog Shake ([1]; oral dose 0.3 mg/kg) [%]
O=C(N[C@@H](CCO)Cc1ccccn1)c1cccc(F)c1-c1cc(-c2ccc(F)cc2)[nH]n1 [Example 1-1, 3-Fluoro-2-[5-(4-fluorophenyl)-1H-pyrazol-3-yl]-N-[(2R)-4-hydroxy-1-(pyridin-2-yl)butan-2-yl]benzamide]	82	169	–	–
NC(=O)[C@H](Cc1ccccc1)NC(=O)c1ccccc1-c1cc(-c2ccccc2)[nH]n1 [Example 1-14]	–	138	–	–
O=C(N[C@@H](CO)Cc1ccccn1)c1ccccc1-c1cc(-c2ccc(F)cc2)[nH]n1 [Example 1-58]	–	159	86	–
O=C(N[C@@H](CO)Cc1ccccn1)c1cccc(F)c1-c1cc(-c2ccc(F)cc2)[nH]n1 [Example 1-84]	59	183	–	–
O=C(N[C@@H](CCO)Cc1ncccc1F)c1cccc(F)c1-c1cc(-c2ccc(F)cc2)[nH]n1 [Example 1-125]	56	223	–	–
O=C(N[C@H](Cc1ccccn1)[C@H](O)CO)c1cccc(F)c1-c1cc(-c2ccc(F)cc2)[nH]n1 [Example 1-139]	–	163	–	–
O=C(N[C@H](Cc1ccccn1)[C@H](O)CO)c1ccccc1-c1n[nH]c(-c2ccc(F)cc2)c1F [Example 1-172]	100	194	–	–
CO[C@H](CO)[C@@H](Cc1ncccn1)NC(=O)c1cccc(F)c1-c1cc(-c2ccc(F)cc2)[nH]n1 [Example 1-227]	66	193	–	–
CO[C@H](CO)[C@@H](Cc1ncccn1)NC(=O)c1ccccc1-c1cc(-c2ccc(F)cc2)[nH]n1 [Example 1-238]	82	136	–	–
CO[C@H](CO)[C@@H](Cn1cccn1)NC(=O)c1cccc(F)c1-c1cc(-c2ccc(F)cc2)[nH]n1 [Example 27-1, 3-Fluoro-2-[5-(4-fluorophenyl)-1H-pyrazol-3-yl]-N-[(2R,3S)-4-hydroxy-3-methoxy-1-(1H-pyrazol-1-yl)butan-2-yl]benzamide]	84	158	–	–
CO[C@H](CO)[C@@H](Cn1cccn1)NC(=O)c1ccccc1-c1cc(-c2ccc(F)cc2)[nH]n1 [Example 27-7]	88	176	–	–
CO[C@H](CO)[C@@H](Cn1cccn1)NC(=O)c1cccc(F)c1-c1cc(-c2ccc(Cl)cc2)[nH]n1 [Example 27-14]	51	195	–	–
CO[C@H](CO)[C@@H](Cn1cccn1)NC(=O)c1cccc(F)c1-c1n[nH]c(-c2ccc(F)cc2)c1F [Example 27-25]	90	167	–	–
CO[C@H](CO)[C@@H](Cc1ccccn1)NC(=O)c1cccc(F)c1-c1cc(-c2ccc(Cl)cc2)[nH]n1 [Example 43-1, 2-[5-(4-Chlorophenyl)-1H-pyrazol-3-yl]-3-fluoro-N-[(2R,3 S)-4-hydroxy-3-methoxy-1-(pyridin-2-yl)butan-2-yl]benzamide]	90	156	–	–
CO[C@H](CO)[C@@H](Cc1ccccn1)NC(=O)c1cccc(F)c1-c1cc(-c2ccc(F)cc2)[nH]n1 [Example 43-3]	–	158	–	58
O=C(N[C@H](Cc1ccccn1)[C@H](F)CO)c1cccc(Cl)c1-c1cc(-c2ccc(F)cc2)[nH]n1 [Example 43-27]	–	185	80	–
O=C(N[C@H](Cn1nccn1)[C@H](F)CO)c1cccc(F)c1-c1cc(-c2ccc(F)cc2)[nH]n1 [Example 43-42]	100	158	–	–
O=C(N[C@H](Cn1nccn1)[C@H](F)CO)c1cccc(F)c1-c1n[nH]c(-c2ccc(F)cc2)c1F [Example 43-43]	–	172	–	93

SMILES	% inhibition of Wet-Dog Shake ([1]; oral dose 1 mg/kg) [%]	response vs control in vivo at 1 mg/kg [2] [%]	% inhibition of Wet-Dog Shake ([1]; oral dose 3 mg/kg) [%]	% inhibition of Wet-Dog Shake ([1]; oral dose 0.3 mg/kg) [%]
O=C(N[C@H](Cn1cccn1)C(F)(F)CO)c1cccc(F)c1-c1cc(-c2ccc(F)cc2)[nH]n1 [Example 50-1, N-[(2R)-3,3-Difluoro-4-hydroxy-1-(1H-pyrazol-1-yl)butan-2-yl]-3-fluoro-2-[5-(4-fluorophenyl)-1H-pyrazol-3-yl]benzamide]	92	217	–	–
O=C(N[C@H](Cn1cccn1)[C@H](F)CO)c1cccc(F)c1-c1cc(-c2ccc(F)cc2)[nH]n1 [Example 50-6]	54	197	–	–
O=C(N[C@H](Cc1ccccn1)[C@H](F)CO)c1cccc(F)c1-c1cc(-c2ccc(Cl)cc2)[nH]n1 [Example 50-7]	–	–	99	–
O=C(N[C@H](Cn1cccn1)[C@@H](O)CF)c1cccc(F)c1-c1cc(-c2ccc(F)cc2)[nH]n1 [Example 50-8]	–	–	82	–
O=C(N[C@H](Cc1ncccn1)[C@H](F)CO)c1cccc(F)c1-c1n[nH]c(-c2ccc(F)cc2)c1F [Example 50-10]	56	–	–	–
O=C(N[C@H](Cn1cccn1)[C@@H](F)CO)c1cccc(F)c1-c1cc(-c2ccc(F)cc2)[nH]n1 [Example 50-11]	–	–	100	–
O=C(N[C@H](Cn1nccn1)C(F)(F)CO)c1cccc(F)c1-c1cc(-c2ccc(F)cc2)[nH]n1 [Example 50-12, N-[(2R)-3,3-Difluoro-4-hydroxy-1-(2H-1,2,3-triazol-2-yl)butan-2-yl]-3-fluoro-2-[5-(4-fluorophenyl)-1H-pyrazol-3-yl]benzamide]	–	191	–	99
O=C(N[C@@H](CCO)C(O)c1ccccn1)c1cccc(F)c1-c1cc(-c2ccc(F)cc2)[nH]n1 (stereo partly drawn) [Example 54-3]	–	–	62	–
C[C@H](O)C[C@H](NC(=O)c1cccc(F)c1-c1cc(-c2ccc(F)cc2)[nH]n1)C(O)c1ccccn1 (stereo partly drawn) [Example 54-4]	–	–	50	–
O=C(N[C@H](Cc1ccccn1)[C@@H](O)CO)c1cccc(F)c1-c1cc(-c2ccc(F)cc2)[nH]n1 [Example 54-6]	–	–	47	–
O=C(N[C@H](Cc1ccccn1)C[C@H](O)CO)c1cccc(F)c1-c1cc(-c2ccc(Cl)cc2)[nH]n1 [Example 54-7]	–	–	41	–
O=C(N[C@H](Cc1ccccn1)[C@@H](O)CO)c1cccc(F)c1-c1n[nH]c(-c2ccc(F)cc2)c1F [Example 54-9]	–	–	40	–
CC(c1ccccn1)[C@@H](NC(=O)c1cccc(F)c1-c1cc(-c2ccc(F)cc2)[nH]n1)[C@H](O)CO (stereo partly drawn) [Example 54-14]	–	–	77	–
CC(c1ccccn1)[C@@H](NC(=O)c1cccc(F)c1-c1cc(-c2ccc(Cl)cc2)[nH]n1)[C@H](O)CO (stereo partly drawn) [Example 54-16]	–	132	86	–
CC(c1ccccn1)[C@@H](NC(=O)c1cccc(F)c1-c1n[nH]c(-c2ccc(F)cc2)c1F)[C@H](O)CO (stereo partly drawn) [Example 54-17]	–	–	42	–
COC(c1ccccn1)[C@@H](NC(=O)c1cccc(F)c1-c1cc(-c2ccc(F)cc2)[nH]n1)[C@H](O)CO (stereo partly drawn) [Example 54-19]	–	–	68	–
O=C(N[C@H](Cn1nccn1)C(F)(F)CO)c1cccc(F)c1-c1n[nH]c(-c2ccc(F)cc2)c1F [Example 56-1, N-[(2R)-3,3-Difluoro-4-hydroxy-1-(2H-1,2,3-triazol-2-yl)butan-2-yl]-3-fluoro-2-[4-fluoro-5-(4-fluorophenyl)-1H-pyrazol-3-yl]benzamide]	–	150	–	91
COC[C@@H](O)[C@@H](Cn1nccn1)NC(=O)c1cccc(F)c1-c1cc(-c2ccc(F)cc2)[nH]n1 [Example 60-1]	92	–	–	–
